Patent publication US7658916B2, “Methods of enhancing lysosomal storage disease therapy by modulation of cell surface receptor density” (Genzyme Corporation, priority 2002, dated 2010)

Assays:
Conditions in all cases: separate experiment, FIG. 9
Hep 3B cells = test: Alpha-galactosidase uptake by Hep3B cells (hepatocytes) in vitro; format: cell-based
Procedure: Muscles are the major target tissues for enzyme replacement therapy of Pompe disease due to the lack of acid alpha-glucosidase. To determine if the M6P/IGF-II receptor-mediated lysosomal enzyme uptake pathway can be augmented by insulin/glucose, the effects of insulin/glucose were analyzed on induced muscle cells (myotubes) in vitro. L6 myoblasts (or induced myotubes) and Hep3B cells were cultured in 6-well dishes. Rat L6 myoblasts (ATCC# CRL-1458) were cultured at 37° C. under 5% CO2 in VitaCell DMEM media (ATCC# 30-2002) with 4 mM L-glutamine, 10% fetal bovine serum (Gibco #16000-044) and 1× penicillin/streptomycin. Once confluent, cells were switched to VitaCell DMEM plus 2% horse sera (Gibco# 26050-088) and 1× penicillin/streptomycin. Media were changed every 3 days and at day 9-10, myotubes could be observed as multinuclear tubes. About 30-40% of the myoblasts formed myotubes. Cells were used for uptake assay at day 10. Hep3B cells were grown in MEM-eagle (Gibco# 11960-044) with 10% FBS, 1×NEAA, 1× sodium pyruvate and 1× penicillin/streptomycin.
Before the uptake assay, the cells were washed once with PBS and once with DMEM minus glucose media (Gibco#11966-025), then the cells were starved in 1.5 ml of DMEM minus glucose media for 1 hour at 37° C. […]

normal fibroblast cells = test: Alpha-galactosidase uptake by normal fibroblasts in vitro; format: cell-based, human
Procedure: Before the uptake assay, the cells were washed once with PBS and once with DMEM minus glucose media (Gibco#11966-025), then the cells were starved in 1.5 ml of DMEM minus glucose media for 1 hour at 37° C. […] The lysates were assay for alpha-galactosidase activity with 4-MU-galactoside (Sigma #M-7633) as substrate and normalized to protein content.
Human skin fibroblasts (ATCC# CRL-1502) were grown at 37° C. under 5% CO2 in MEM with Earle's balanced salts, 2× essential and non-essential amino acids (NEAA) (Gibco# 11130-051, 11140-050) and vitamin (Gibco# 1120-052), 20% fetal bovine serum (Gibco# 16000-044, not heat-inactivated) plus 1× penicillin/streptomycin. The pH of the media was adjusted to approximately 7 with sodium bicarbonate (Gibco #25080-094).

Fabry fibroblast cells = test: Alpha-galactosidase uptake by Fabry fibroblasts in vitro; format: cell-based
Procedure: Before the uptake assay, the cells were washed once with PBS and once with DMEM minus glucose media (Gibco#11966-025), then the cells were starved in 1.5 ml of DMEM minus glucose media for 1 hour at 37° C. After starvation, the cells were switched to uptake media (DMEM with or without glucose, plus 4 mg/ml BSA, 2.5 mM beta-glycerophosphate (Sigma #G-6376), 25 mM Hepes, pH 6.8. Insulin (Calbiochem, #40769), M6P (Sigma # M-6876) and 2 μg/ml recombinant human alpha-galactosidase (as a model protein because of its better M6P phosphylation) were added as indicated in FIGS. 7A and 7B. Uptake of enzyme was continued for 4 hours at 37° C. After uptake, the cells were washed twice with PBS containing 1 mM M6P and once with PBS, then lysed in alpha-galactosidase assay buffer (50 mM sodium citrate, […]) plus 1% Triton X-100 and protease inhibitors. The lysates were assay for alpha-galactosidase activity with 4-MU-galactoside (Sigma #M-7633) as substrate and normalized to protein content.
Human skin fibroblasts (ATCC# CRL-1502) were grown at 37° C. under 5% CO2 in MEM with Earle's balanced salts, 2× essential and non-essential amino acids (NEAA) (Gibco# 11130-051, 11140-050) and vitamin (Gibco# 1120-052), 20% fetal bovine serum (Gibco# 16000-044, not heat-inactivated) plus 1× penicillin/streptomycin. […]

insulin: Insulin (Calbiochem, #40769)
about 200%: alpha-galactosidase uptake by Hep 3B cells increased to (Hep 3B cells) | alpha-galactosidase uptake by normal fibroblast cells increased to (normal fibroblast cells) | alpha-galactosidase uptake by Fabry fibroblast cells increased to (Fabry fibroblast cells)
